Tests used:
Type in all cases: biochemical
SIK3 = SIK3 (Homo sapiens, UniProt Q9Y2K2); assay: Enzymatic activity assay SIK3, RapidFire mass spectrometry (phosphorylation of CHK-peptide); settings: RapidFire MS, inhibition of SIK3; read-out: SIK3 RF IC50
Method: (§1) Assay description SIK1-3, RapidFire:
(§2) In the presence of SIK2 (resp. SIK1 or SIK3) and ATP the CHK-peptide ([…] with C-terminal arginine amide modification) were phosphorylated at one of the four feasible serine's. Only one phosphorylation is observed under the assay conditions. 60 nl of each compound dilution series (12 point; dilution factor 3, generally 30 μM to 170 pM) in DMSO were transferred by acoustic dispensing to the assay plate and 30 min pre-incubated (ambient temperature) after the addition of 5 μl SIK1 (5 nM) resp. 5 μl SIK2 (0.5 nM) or 7 μl SIK3 (1.5 nM) in assay-buffer (12.5 mM HEPES (pH 7.0), 10 mM magnesium acetate, 0.005% BSA). 10 μM CHK-peptide solution and 5 μl 100 μM ATP for SIK1 & SIK2 resp. 3 μl for SIK3 in assay-buffer were added and incubated ambient for 45 min. 40 μl 0.125% formic acid in water were added to quench the reaction. RapidFire (RF) Mass Spectrometry was utilized for data generation as described below. The multiple charged species (3-5 charges) for the phosphorylated and non-phosphorylated form measured by MRM (Multiple Reaction Monitoring; API5000 or 6500+) or EIC (Extracted Ion Current; QToF) were summed up and the ratio calculated (sum phosphorylated species/sum all species) for data evaluation. Normalization was performed by Genedata software based on the non-inhibition control DMSO and the commercially available SIK inhibitor @ 1 μM YKL-05-099 (CAS number 1936529-65-5). The results of the assay are expressed in half-maximal inhibitory concentrations (IC50s) and are summarized below in Table 1.
(§3) Samples were aspirated by vacuum for max. 600 ms and loaded to C4-cartridge (Agilent; #G9203A) for 3000 ms@1.5 ml/min with 0.1% formic acid in water. Afterwards samples were transferred to the APT5000 (APT6500+) or QToF mass spectrometer for 4000 ms@1.25 ml/min with 90% acetonitrile; 10% water; 0.007% TFA; 0.093 formic acid. The cartridge was reconditioned for additional 500 ms with 0.1% formic acid in water
(§4) All MS analyses using the following MS-setup in MRM mode: Electrospray positive; Ion Spray Voltage: 4000V; Temperature: 550° C.; Collision Gas: 5; Curtain Gas: 15; Gas1: 40; Gas 2: 42; EP: 10
(§5) MS-Setup Agilent QToF 6545
(§6) All MS analyses using the following MS-setup in Mode MS: Dual AJS Electrospray positive; VCap: 3000V; Drying & Sheath gas: 340° C.@81/min; Nebulizer: 60 psig; Nozzle Voltage: 2000V; Fragmentor: 130V; Skimmer: 35V; Oct1 RF Vpp: 700V; Ref masses on@5spectra/s

SIK2 = SIK2 (Homo sapiens, UniProt Q9H0K1); assay: Enzymatic activity assay SIK2, RapidFire mass spectrometry (phosphorylation of CHK-peptide); settings: RapidFire MS, inhibition of SIK2; read-out: SIK2 RF IC50
Chain of SIK2 (Q9H0K1 whole entry): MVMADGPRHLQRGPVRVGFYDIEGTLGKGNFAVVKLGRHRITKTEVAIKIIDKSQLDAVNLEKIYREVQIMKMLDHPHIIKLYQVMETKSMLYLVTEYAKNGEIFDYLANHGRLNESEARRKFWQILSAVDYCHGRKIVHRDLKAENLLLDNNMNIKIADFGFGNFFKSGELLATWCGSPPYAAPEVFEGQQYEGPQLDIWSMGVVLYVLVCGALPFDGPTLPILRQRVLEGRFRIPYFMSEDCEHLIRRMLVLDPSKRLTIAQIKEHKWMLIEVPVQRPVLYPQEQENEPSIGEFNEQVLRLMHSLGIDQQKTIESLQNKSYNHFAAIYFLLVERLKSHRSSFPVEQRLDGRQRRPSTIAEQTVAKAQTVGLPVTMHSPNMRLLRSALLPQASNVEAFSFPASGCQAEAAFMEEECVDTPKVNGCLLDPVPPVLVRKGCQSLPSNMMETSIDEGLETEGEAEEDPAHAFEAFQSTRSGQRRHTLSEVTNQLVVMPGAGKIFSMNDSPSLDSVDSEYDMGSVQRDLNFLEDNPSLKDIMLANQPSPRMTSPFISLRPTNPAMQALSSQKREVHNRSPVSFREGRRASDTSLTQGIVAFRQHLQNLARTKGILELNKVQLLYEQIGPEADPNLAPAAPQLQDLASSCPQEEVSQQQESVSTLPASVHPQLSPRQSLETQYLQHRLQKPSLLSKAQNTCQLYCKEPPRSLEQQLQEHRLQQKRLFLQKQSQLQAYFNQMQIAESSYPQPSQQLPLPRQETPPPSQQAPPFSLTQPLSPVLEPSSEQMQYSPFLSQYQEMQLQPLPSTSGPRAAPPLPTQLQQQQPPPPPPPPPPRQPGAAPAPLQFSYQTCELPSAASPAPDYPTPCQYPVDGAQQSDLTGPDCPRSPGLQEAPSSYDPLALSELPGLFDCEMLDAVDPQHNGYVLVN
Method: as §1
as §2, with “Only one phosphorylation is observed under the assay conditions. 60 nl of each compound dilution series (12 point; dilution factor 3, generally 30 μM to 170 pM) in DMSO were transferred by acoustic dispensing to the assay plate and 30 min pre-incubated (ambient temperature) after the addition of 5 μl SIK1 (5 nM) resp.” left out, “1936529-65-5).” for “1936529-65-5). The results of the assay are expressed in half-maximal inhibitory concentrations (IC50s) and are summarized below in Table 1.”
as §3, §4, §5, §6

SIK1 = SIK1 (Homo sapiens, UniProt P57059); assay: Enzymatic activity assay SIK1, RapidFire mass spectrometry (phosphorylation of CHK-peptide); settings: RapidFire MS, inhibition of SIK1; read-out: SIK1 RF IC50
Chain of SIK1 (P57059 whole entry): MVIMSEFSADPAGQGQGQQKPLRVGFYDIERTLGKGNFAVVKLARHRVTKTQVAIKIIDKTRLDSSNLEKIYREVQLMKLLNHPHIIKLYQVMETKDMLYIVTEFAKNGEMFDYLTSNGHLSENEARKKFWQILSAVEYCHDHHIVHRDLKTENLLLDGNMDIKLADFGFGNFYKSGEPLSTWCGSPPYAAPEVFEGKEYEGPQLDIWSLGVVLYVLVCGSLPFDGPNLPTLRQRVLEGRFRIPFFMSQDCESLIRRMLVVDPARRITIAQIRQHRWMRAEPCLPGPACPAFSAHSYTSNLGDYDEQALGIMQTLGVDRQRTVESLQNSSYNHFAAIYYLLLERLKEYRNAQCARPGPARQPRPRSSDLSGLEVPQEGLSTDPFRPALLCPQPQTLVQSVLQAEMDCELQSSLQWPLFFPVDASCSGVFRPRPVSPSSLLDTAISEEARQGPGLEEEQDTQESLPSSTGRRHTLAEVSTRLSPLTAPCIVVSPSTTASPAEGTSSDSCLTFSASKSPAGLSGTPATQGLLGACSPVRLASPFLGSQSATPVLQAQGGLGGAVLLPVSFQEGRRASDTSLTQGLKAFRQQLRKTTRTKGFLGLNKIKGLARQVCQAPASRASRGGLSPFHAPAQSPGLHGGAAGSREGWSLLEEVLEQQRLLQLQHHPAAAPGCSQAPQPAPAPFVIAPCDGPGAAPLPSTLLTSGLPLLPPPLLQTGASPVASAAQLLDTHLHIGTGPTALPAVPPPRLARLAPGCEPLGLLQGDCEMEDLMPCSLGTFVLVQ
Method: as §1, §2, §3, §4, §5, §6

Chain of SIK3 (Q9Y2K2 whole entry): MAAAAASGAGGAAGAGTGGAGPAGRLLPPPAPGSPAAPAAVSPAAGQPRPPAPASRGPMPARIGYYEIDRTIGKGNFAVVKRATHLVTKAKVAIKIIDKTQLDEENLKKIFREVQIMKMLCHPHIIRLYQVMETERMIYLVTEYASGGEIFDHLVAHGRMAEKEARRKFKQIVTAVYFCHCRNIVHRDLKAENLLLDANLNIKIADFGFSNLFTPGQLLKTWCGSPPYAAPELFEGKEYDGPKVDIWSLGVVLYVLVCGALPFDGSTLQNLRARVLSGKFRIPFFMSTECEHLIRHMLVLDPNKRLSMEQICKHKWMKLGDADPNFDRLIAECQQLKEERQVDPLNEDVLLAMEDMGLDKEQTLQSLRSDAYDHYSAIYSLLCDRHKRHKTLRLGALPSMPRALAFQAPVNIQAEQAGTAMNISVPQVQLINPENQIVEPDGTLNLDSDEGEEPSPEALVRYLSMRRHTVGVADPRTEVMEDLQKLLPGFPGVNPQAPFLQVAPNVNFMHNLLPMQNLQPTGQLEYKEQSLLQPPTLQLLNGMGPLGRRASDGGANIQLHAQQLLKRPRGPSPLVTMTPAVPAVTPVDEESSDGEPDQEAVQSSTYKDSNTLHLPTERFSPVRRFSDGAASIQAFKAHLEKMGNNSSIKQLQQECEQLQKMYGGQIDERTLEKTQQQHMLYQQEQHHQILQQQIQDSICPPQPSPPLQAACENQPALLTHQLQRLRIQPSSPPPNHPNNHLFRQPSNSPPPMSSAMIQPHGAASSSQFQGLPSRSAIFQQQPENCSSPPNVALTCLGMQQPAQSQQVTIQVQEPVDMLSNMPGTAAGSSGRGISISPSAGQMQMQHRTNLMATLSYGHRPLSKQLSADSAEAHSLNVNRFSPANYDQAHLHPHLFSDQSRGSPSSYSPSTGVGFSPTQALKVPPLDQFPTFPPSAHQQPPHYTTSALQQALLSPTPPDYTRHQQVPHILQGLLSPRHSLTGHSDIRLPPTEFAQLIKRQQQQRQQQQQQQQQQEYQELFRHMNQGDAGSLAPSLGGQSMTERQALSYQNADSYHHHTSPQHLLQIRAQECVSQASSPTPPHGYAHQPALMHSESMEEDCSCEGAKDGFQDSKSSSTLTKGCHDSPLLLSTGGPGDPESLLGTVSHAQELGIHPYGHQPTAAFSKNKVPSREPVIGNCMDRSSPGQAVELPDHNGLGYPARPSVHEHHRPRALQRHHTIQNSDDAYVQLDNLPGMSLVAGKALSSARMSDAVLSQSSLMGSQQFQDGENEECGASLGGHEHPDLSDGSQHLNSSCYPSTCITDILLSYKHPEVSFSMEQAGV

Work on “1-[6-[5-[[5-(azetidin-1-yl)pyridazin-3-yl]amino]-6-fluoro-benzimidazol-1-yl]-2-[3-(difluoromethyl)-5-methyl-pyrazol-1-yl]-3-pyridyl]ethanol [Example 390]” yielded an IC50 (SIK3) of 16 nM, an IC50 (SIK2) of 27.2 nM and an IC50 (SIK1) of 5890 nM.
Work on “1-[6-[6-fluoro-5-[(5-fluoro-6-methyl-3-pyridyl)amino] benzimidazol-1-yl]-3-(1-hydroxyethyl)-2-pyridyl]-5-methyl-pyrazole-3-carbonitrile [Example 389]” yielded an IC50 (SIK3) of 5.1 nM, an IC50 (SIK2) of 7.9 nM and an IC50 (SIK1) of 42 nM.
`Cc1ccc(Nc2ccc3c(c2)ncn3-c2ccc(C(C)O)c(N3CC[C@H]4NCC[C@@H]43)n2)nn1` (mixture of isomers) [Example 127, 1-[6-[5-[(6-Methylpyridazin-3-yl)amino]benzimidazol-1-yl]-2-[rac-trans-2,3,3a,5,6,6a-hexahydro-1H-pyrrolo[3,2-b]pyrrol-4-yl]-3-pyridyl]ethanol] showed an IC50 (SIK3) of 15.5 nM, an IC50 (SIK2) of 13.7 nM and an IC50 (SIK1) of 457 nM.
Work on `Cc1cc(C#N)nn1-c1nc(-n2cnc3cc(F)c(N[C@@H]4CNC[C@@H]4F)cc32)ccc1C(C)O` (stereo in doubt) [Example 188, 1-[6-[5-fluoro-6-[[(3R,4S)-4-fluoropyrrolidin-3-yl]amino]benzimidazol-1-yl]-3-(1-hydroxyethyl)pyridin-2-yl]-5-methylpyrazole-3-carbonitrile] yielded an IC50 (SIK3) of 213 nM, an IC50 (SIK2) of 70 nM and an IC50 (SIK1) of 87 nM.
In the case of `COc1cc2ncn(-c3ccc(CO)c(-c4cccc(Cl)c4)n3)c2cc1OC` [Example 1, (2-(3-chlorophenyl)-6-(5,6-dimethoxy-1H-benzo[d]imidazol-1-yl)pyridin-3-yl)methanol], the IC50 (SIK3) is reported as 358 nM, the IC50 (SIK2) is reported as 105 nM and the IC50 (SIK1) is reported as 152 nM.
`COc1cc2ncn(-c3ccc(CO)c(-c4cccc(Cl)c4F)n3)c2cc1OC` [Example 15, (2-(3-Chloro-2-fluorophenyl)-6-(5,6-dimethoxy-1H-benzo[d]imidazol-1-yl)pyridin-3-yl)methanol] gave an IC50 (SIK3) of 55.4 nM, an IC50 (SIK2) of 12.8 nM and an IC50 (SIK1) of 18 nM.
For `COc1cc2ncn(-c3ccc(CO)c(-c4ccc(F)cc4OC)n3)c2cc1OC` [Example 16, (6-(5,6-Dimethoxy-1H-benzo[d]imidazol-1-yl)-2-(4-fluoro-2-methoxyphenyl)pyridin-3-yl)methanol], the IC50 (SIK3) was 2180 nM, the IC50 (SIK2) was 313 nM and the IC50 (SIK1) was 692 nM.
`COc1cc2ncn(-c3ccc(C(C)O)c(-c4ccc(F)cc4OC)n3)c2cc1OC` (centres unmarked) [Example 17, 1-(6-(5,6-Dimethoxy-1H-benzo[d]imidazol-1-yl)-2-(4-fluoro-2-methoxyphenyl)pyridin-3-yl)ethan-1-ol] gave an IC50 (SIK3) of 1140 nM, an IC50 (SIK2) of 155 nM and an IC50 (SIK1) of 327 nM.
`CCC(O)c1ccc(-n2cnc3cc(OC)c(OC)cc32)nc1-c1ccc(F)cc1OC` (centres unmarked) [Example 18, 1-(6-(5,6-Dimethoxy-1H-benzo[d]imidazol-1-yl)-2-(4-fluoro-2-methoxyphenyl)pyridin-3-yl)propan-1-ol] gave an IC50 (SIK3) of 2880 nM, an IC50 (SIK2) of 988 nM and an IC50 (SIK1) of 1000 nM.
Work on `COc1cc2ncn(-c3ccc(C(C)O)c(-c4cccc(Cl)c4)n3)c2cc1OC` (centres unmarked) [Example 19, 1-(2-(3-Chlorophenyl)-6-(5,6-dimethoxy-1H-benzo[d]imidazol-1-yl)pyridin-3-yl)ethan-1-ol] yielded an IC50 (SIK3) of 116 nM, an IC50 (SIK2) of 26.5 nM and an IC50 (SIK1) of 68 nM.
With `COc1cc2ncn(-c3ccc(C(C)O)c(-c4cccc(Cl)c4F)n3)c2cc1OC` (centres unmarked) [Example 20, 1-(2-(3-Chloro-2-fluorophenyl)-6-(5,6-dimethoxy-1H-benzo[d]imidazol-1-yl)pyridin-3-yl)ethan-1-ol] the IC50 (SIK3) was 19.8 nM, the IC50 (SIK2) was 5 nM and the IC50 (SIK1) was 12 nM.
With `COc1cc2ncn(-c3ccc([C@H](C)O)c(-c4ccc(F)cc4OC)n3)c2cc1OC` [Example 21, (S)-1-(6-(5,6-Dimethoxy-1H-benzo[d]imidazol-1-yl)-2-(4-fluoro-2-methoxyphenyl)pyridin-3-yl)ethan-1-ol] the IC50 (SIK3) was 543 nM, the IC50 (SIK2) was 135 nM and the IC50 (SIK1) was 192 nM.
Molecule `COc1cc2ncn(-c3ccc([C@@H](C)O)c(-c4ccc(F)cc4OC)n3)c2cc1OC` [Example 22, (R)-1-(6-(5,6-Dimethoxy-1H-benzo[d]imidazol-1-yl)-2-(4-fluoro-2-methoxyphenyl)pyridin-3-yl)ethan-1-ol] has an IC50 (SIK3) of 4480 nM, an IC50 (SIK2) of 849 nM and an IC50 (SIK1) of 970 nM.
`COc1cc2ncn(-c3ccc(C(O)C4CC4)c(-c4ccc(F)cc4OC)n3)c2cc1OC` (centres unmarked) [Example 23, Cyclopropyl(6-(5,6-dimethoxy-1H-benzo[d]imidazol-1-yl)-2-(4-fluoro-2-methoxyphenyl)pyridin-3-yl)methanol] showed an IC50 (SIK3) of 9010 nM, an IC50 (SIK2) of 3880 nM and an IC50 (SIK1) of 3640 nM.
`CCC(O)c1ccc(-n2cnc3cc(OC)c(OC)cc32)nc1-c1cccc(Cl)c1` (centres unmarked) [Example 24, 1-(2-(3-Chlorophenyl)-6-(5,6-dimethoxy-1H-benzo[d]imidazol-1-yl)pyridin-3-yl)propan-1-ol] was tested, and the IC50 (SIK3) was 727 nM, the IC50 (SIK2) was 192 nM and the IC50 (SIK1) was 353 nM.
Molecule `COc1cc2ncn(-c3ccc(C(O)C4CC4)c(-c4cccc(Cl)c4)n3)c2cc1OC` (centres unmarked) [Example 25, (2-(3-Chlorophenyl)-6-(5,6-dimethoxy-1H-benzo[d]imidazol-1-yl)pyridin-3-yl)(cyclopropyl)methanol] has an IC50 (SIK3) of 987 nM, an IC50 (SIK2) of 605 nM and an IC50 (SIK1) of 777 nM.
`COc1cc2ncn(-c3ccc(CO)c(N4CCOCC4)n3)c2cc1OC` [Example 26, (6-(5,6-Dimethoxy-1H-benzo[d]imidazol-1-yl)-2-morpholinopyridin-3-yl)methanol] showed an IC50 (SIK3) of 1440 nM, an IC50 (SIK2) of 699 nM and an IC50 (SIK1) of 806 nM.
For `COc1cc2ncn(-c3ccc(CO)c(N4CCCC4)n3)c2cc1OC` [Example 27, (6-(5,6-Dimethoxy-1H-benzo[d]imidazol-1-yl)-2-(pyrrolidin-1-yl)pyridin-3-yl)methanol], the IC50 (SIK3) was 761 nM, the IC50 (SIK2) was 473 nM and the IC50 (SIK1) was 535 nM.
Work on `Cc1ccc(Nc2ccc3c(c2)ncn3-c2ccc(C(C)O)c(-n3nc(C#N)cc3C)n2)nn1` (centres unmarked) [Example 64, 1-[3-(1-Hydroxyethyl)-6-[5-[(6-methylpyridazin-3-yl)amino]benzimidazol-1-yl]-2-pyridyl]-5-methyl-pyrazole-3-carbonitrile] yielded an IC50 (SIK3) of 0.6 nM and an IC50 (SIK1) of 59 nM.
`Cc1ccc(Nc2ccc3c(c2)ncn3-c2ccc([C@H](C)O)c(-n3nc(C#N)cc3C)n2)nn1` [Example 109, 5-Methyl-1-[6-[5-[(6-methylpyridazin-3-yl)amino]benzimidazol-1-yl]-3-[(1S)-1-hydroxyethyl]-2-pyridyl]pyrazole-3-carbonitrile] gave an IC50 (SIK3) of 18.6 nM and an IC50 (SIK1) of 1800 nM.
`Cc1ccc(Nc2ccc3c(c2)ncn3-c2ccc([C@@H](C)O)c(-n3nc(C#N)cc3C)n2)nn1` [Example 110, 5-Methyl-1-[6-[5-[(6-methylpyridazin-3-yl)amino]benzimidazol-1-yl]-3-[(1R)-1-hydroxyethyl]-2-pyridyl]pyrazole-3-carbonitrile] showed an IC50 (SIK3) of 0.2 nM and an IC50 (SIK1) of 26 nM.
`Cc1ccc(Nc2ccc3c(c2)ncn3-c2ccc(C(C)O)c(-c3cccnc3-c3cn[nH]c3)n2)nn1` (centres unmarked) [Example 186, 1-[6-[5-[(6-Methylpyridazin-3-yl)amino]benzimidazol-1-yl]-2-[2-(1H-pyrazol-4-yl)-3-pyridyl]-3-pyridyl]ethanol] was tested, and the IC50 (SIK3) was 1060 nM and the IC50 (SIK2) was 1240 nM.

Source: patent publication US20240383875A1, “Benzimidazole Pyridine Derivatives” (Hoffmann-La Roche Inc., priority 2022, published 2024)
